These results are taken from publication PMC9959130, “Effects of Side Chain and Peptide Bond Modifications on the Targeting Properties of Stabilized Minigastrin Analogs” (Pharmaceuticals, 2023).

Where a SMILES comes first, the peptide text is derived from it. [ ]: non-standard residue; d: D form. The star is where a group is joined. DOTA = O=C(O)CN1CCN(CC(=O)O)CCN(CC(=O)*)CCN(CC(=O)O)CC1; NMeNle = CCCC[C@H](NC)C(=O)O

The nature of one data set: Complex stability in PBS. To be noted: 1000 pmol/mL in PBS, room temperature, 4 h after incubation, n = 1. In kind it is physicochemical. The method, then: In vitro stability studies were performed in human serum (n = 2). The radiolabeled peptides (1000 pmol/mL) were incubated at 37 °C and a sample of 100 μL was taken at 1, 4, and 24 h after incubation. After the precipitation of proteins with ACN at 1:1.5 (v/v), centrifugation (14,000 rpm, 2 min, centrifuge 5424, Eppendorf AG, Germany) and dilution with water at 1:1 (v/v), an aliquot of 100 μL of this solution was analyzed by HPLC. Radioligand breakdown was monitored and the percentage of intact radiopeptide was calculated using Chromeleon Dionex Software (Version 7.2.9.11323). Additionally, the radiolabeled peptides (1000 pmol/mL) were incubated in PBS (n = 1) at room temperature to confirm the complex stability as a control.

Data set [1] in a line: Metabolic studies in BALB/c mice (intact radiopeptide by radio-HPLC). To be noted: i.v., 2 nmol, 10 min p.i., two animals per peptide. In kind it is in vivo. The method, then:
All animal experiments were approved by the Austrian Ministry of Science (BMWF-66.011/0075- WF/V/3b/2016) and performed in accordance with the Austrian Animal Protection Act. Metabolic studies characterizing the stability of selected radioligands against enzymatic degradation were carried out in 7 to 8 week old female BALB/c mice (Charles River, Sulzfeld, Germany). The mice (two animals for each peptide) were intravenously injected into a lateral tail vein with 5–10 MBq of the ^111In-labeled peptide derivatives, corresponding to 2 nmol total peptide. At the time point of 10 min p.i. the animals were euthanatized by cervical dislocation. A sample of urine and blood was immediately collected. Liver and kidneys were dissected, mixed with 20 mM HEPES buffer pH 7.3 (1:1, w/v) and homogenized using an Ultra-Turrax T8 homogenizer (IKA-Werke, Staufen, Germany) for 1 min. All samples taken were analyzed by analytical HPLC using the low-sensitivity loop for urine and the high-sensitivity loop for blood, liver and kidney. Before injection into the HPLC system, all samples except urine were treated with ACN and diluted with water as described for stability studies in human serum. The percentage of intact radiopeptide in the analyzed samples was calculated by integration of the different peaks found in the radiochromatogram using Chromeleon Dionex Software (Version 7.2.9.11323).

Data set [2] deals with T1, human CCK2R (Homo sapiens, UniProt P32239).
T1 construct: expressed in transfected cells; host or cells: A431 human epidermoid carcinoma cells, stably transfected (A431-CCK2R); originally provided by Dr. Luigi Aloj
T1 sequence (P32239 1-447): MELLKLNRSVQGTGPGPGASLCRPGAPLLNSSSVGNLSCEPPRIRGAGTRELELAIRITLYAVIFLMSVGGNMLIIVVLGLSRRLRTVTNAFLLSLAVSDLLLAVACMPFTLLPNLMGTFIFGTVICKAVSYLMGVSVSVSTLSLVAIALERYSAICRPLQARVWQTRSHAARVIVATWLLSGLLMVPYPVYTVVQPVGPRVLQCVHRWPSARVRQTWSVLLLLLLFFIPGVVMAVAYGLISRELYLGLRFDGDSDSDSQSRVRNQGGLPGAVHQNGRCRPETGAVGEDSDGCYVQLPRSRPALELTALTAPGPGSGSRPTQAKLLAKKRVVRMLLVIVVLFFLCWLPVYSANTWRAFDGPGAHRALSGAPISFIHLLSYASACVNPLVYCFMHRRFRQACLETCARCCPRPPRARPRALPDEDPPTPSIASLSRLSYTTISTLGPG
In words: Competitive binding assay against [125I][3-iodo-Tyr12,Leu15]gastrin-I on A431-CCK2R cells. To be noted: unlabeled peptide, 1 h at RT, radioligand [125I][3-iodo-Tyr12,Leu15]gastrin-I, mean ± sd of three independent experiments in triplicates. The text has this:
(§1) A431 human epidermoid carcinoma cells overexpressing human CCK2R through stable transfection (A431-CCK2R) and the same cell line transfected with the empty vector (A431-mock) were used for cell assays. The cells are constantly available in our laboratory and were originally provided by Dr. Luigi Aloj. All cell culture media and reagents were obtained from Invitrogen Corporation (Lofer, Austria) or Sigma-Aldrich (Darmstadt, Germany). Dulbecco’s modified Eagle’s medium (DMEM) supplemented with 10% (v/v) fetal bovine serum and 1% of 100x penicillin−streptomycin−glutamine was used for cell culture. The cells were passaged three times per week using a 10x 2.5% trypsin-EDTA solution in a 1:2–1:3 ratio.
Receptor affinity studies of the DOTA-conjugates for the CCK2R was competitively evaluated against [^125I][3-iodo-Tyr^12,Leu^15]gastrin-I. The binding assays were performed in 96-well filter plates (MultiScreenHTS-FB, Merck Group, Darmstadt, Germany) as previously described. A431-CCK2R cells (200,000–400,000/well) were incubated for 1 h at RT with the peptides (concentration range of 0.01–1000 nM) and [^125I][3-iodo-Tyr^12,Leu^15]gastrin-I (~25,000 cpm). The incubation was arrested by filtering the medium by vacuum and rinsing twice rapidly with ice-cold binding assay buffer (10 mM TRIS/139 mM NaCl, pH 7.3). The filters were removed from the plate, transferred into 4.5 mL tubes and measured in the γ-counter. Data were normalized from 0 to 100 for graphical representation of exemplary binding curves. Origin software (Microcal Origin 6.1, Northampton, MA, USA) was used to calculate the half maximal inhibitory concentration (IC50) values by nonlinear regression and expressed as mean ± sd for three independent experiments performed in triplicates. An additional cell uptake study at 2 h after incubation was performed for DOTA-[(N-Me)1Nal^8]MGS5 radiolabeled with gallium-68 and lutetium-177 (see Figure S4 of the Supplementary Materials).

Data set [3] has as its target T1, human CCK2R. Nature of the data set: Calcium mobilization assay (fluo-4 AM) on A431-CCK2R cells. In kind it is cell-based. To be noted: normalized to 10^−6 M pentagastrin, mean ± SEM of at least three independent experiments in triplicates.
Source text: as §1
Analog-induced receptor activation was evaluated by a calcium mobilization assay using the calcium-sensitive dye fluo-4 AM (ThermoFisher Scientific, Montigny-Le-Bretonneux, France), as previously described. Briefly, A431-CCK2R cells were seeded (60,000/well) in flat clear bottom black 96-well plates (Corning, Bagneaux-sur-Loing, France) coated with poly-L-ornithine (100 µg/mL, 1 h, 37 °C) (Sigma Aldrich, Saint Quentin Fallavier, France). Cytosolic Ca^2+ variations were measured before and after application of 50 µL of graded concentrations of the investigated peptides in the vicinity of the cells, and the effects on Ca^2+ mobilization were measured. Data were background corrected and normalized for the amplitudes caused by the medium alone (0%, no self-effect) or 10^−6 M pentagastrin (100%, maximal Ca^2+ mobilization response). Prism 4.0 software was used to calculate the EC50 values and the results were expressed as mean ± SEM for at least three independent experiments performed in triplicates.

For `CCCC[C@@H](C(=O)N[C@@H](CC(=O)O)C(=O)N(C)[C@@H](Cc1cccc2ccccc12)C(N)=O)N(C)C(=O)[C@H](Cc1c[nH]c2ccccc12)NC(=O)CNC(=O)[C@H](Cc1ccc(O)cc1)NC(=O)[C@H](C)NC(=O)[C@@H](CCC(=O)O)NC(=O)CN1CCN(CC(=O)O)CCN(CC(=O)O)CCN(CC(=O)O)CC1` [[^111In]In-DOTA-[(N-Me)1Nal^8]MGS5] [metal not drawn], the “Stability of the DOTA-complex in PBS” value in the data set “Complex stability in PBS” is recorded as 96.2%. Further, in data set [1] (kidney homogenate), the “Intact radiopeptide in kidney” value turned out to be 40.2 ± 4.1%. Moreover, the “Intact radiopeptide in liver” value in data set [1] (liver homogenate) turned out to be 94.9 ± 2.8%. Also, in data set [1], the “Intact radiopeptide in blood” value was found to be 98.4 ± 0.1% and the “Intact radiopeptide in urine” value was determined as 15.9 ± 3.4%.

Take `CCCC[C@@H](C(=O)N[C@@H](CC(=O)O)C(=O)N(C)[C@@H](Cc1cccc2ccccc12)C(N)=O)N(C)C(=O)[C@H](Cc1c[nH]c2ccccc12)NC(=O)CNC(=O)[C@H](Cc1ccc(O)cc1)NC(=O)[C@H](C)NC(=O)[C@@H](CCC(=O)O)NC(=O)CN1CCN(CC(=O)O)CCN(CC(=O)O)CCN(CC(=O)O)CC1` [[^177Lu]Lu-DOTA-[(N-Me)1Nal^8]MGS5] [metal not drawn]: the “Stability of the DOTA-complex in PBS” value in the data set “Complex stability in PBS” is 99%.

The term IC50 denotes the concentration that inhibits the measured activity by half. A word on the EC50: it is the concentration at which the effect is half-maximal. For the compound `CCCC[C@@H](C(=O)N[C@@H](CC(=O)O)C(=O)N[C@@H](Cc1ccccc1)C(N)=O)N(C)C(=O)[C@H](Cc1c[nH]c2ccccc12)NC(=O)CNC(=O)[C@H](Cc1ccc(O)cc1)NC(=O)[C@H](C)NC(=O)[C@@H](CCC(=O)O)NC(=O)CN1CCN(CC(=O)O)CCN(CC(=O)O)CCN(CC(=O)O)CC1` [DOTA-[Phe^8]MGS5] ({DOTA}-[dE]AYGW[NMeNle]DF-NH2), the IC50 on human CCK2R [2] turned out to be 0.7 ± 0.1 nM. For the same compound, at human CCK2R [3], the EC50 turned out to be 6.3 ± 3.6 nM.

In the case of `CCCC[C@@H](C(=O)N[C@@H](CC(=O)O)C(=O)N(C)[C@@H](Cc1cccc2ccccc12)C(N)=O)N(C)C(=O)[C@H](Cc1c[nH]c2ccccc12)NC(=O)CNC(=O)[C@H](Cc1ccc(O)cc1)NC(=O)[C@H](C)NC(=O)[C@@H](CCC(=O)O)NC(=O)CN1CCN(CC(=O)O)CCN(CC(=O)O)CCN(CC(=O)O)CC1` [DOTA-[(N-Me)1Nal^8]MGS5], on human CCK2R [2], the IC50 turned out to be 2.7 ± 0.3 nM. The EC50 on human CCK2R [3] was 63.4 ± 19.9 nM.
